Experiments:
[1] = test system: HDM-challenged BALB/c mice; assay: HDM-induced airway hyperresponsiveness to methacholine (lung resistance); type: in vivo; settings: dexamethasone 3 mg/kg; 50 mg/ml of methacholine; HDM/vehicle 7.9±0.5
Method: Airway responsiveness was measured 24 h after the last HDM or PBS challenge, using a separate set of animals using the Buxco FinePointe series RC site (DSI, Wilmington, NC) as described previously in the literature. Briefly, mice were anesthetized with an intraperitoneal injection of ketamine/xylazine ([…]) cocktail and tracheotomized with a steel 18-gauge cannula. Mice were then mechanically ventilated at a rate of 150 breaths/minute and a tidal volume of 0.15 ml using a computerized small animal ventilator (FinePointe site). Following a 5 min period of stabilization and administration of PBS, airway resistance was measured by exposing mice to aerosolized methacholine (6.25-50.0 mg/ml, 5 μl per delivery) delivered by an aerogen nebulizer and reported as total lung resistance (RL) (cm H2O per ml/sec).
All numerical values were expressed as means±SEM. Total cell counts represent the number of cells/ml of BAL fluid. Differential cell counts represent the absolute number of each cell type/ml of BAL fluid. Absolute RL values were computed and were used as an index of airway responsiveness. For the histopathological assessment, a semi-quantitative 5-level lung pathology score was used to grade the degree of inflammation in each microscopic field at 20×. All data were initially assessed for normality. […]

pERK1/2 (Thr202/Tyr204) = assay: Immunofluorescence of lung sections, phosphorylation of ERK1/2; type: in vivo, mice; settings: synergy study; OBE 30 mg/kg, dexamethasone 0.5 mg/kg, alone or combined; HDM 319.0±10.4
Method: Lung tissues were processed as described above. Immunofluorescence was performed as previously described in the literature. In short, lung sections were incubated in a blocking solution (5% bovine serum albumin (BSA)+0.3% Triton X-100 in PBS) for 1 hour, and were subsequently incubated overnight at 4° C. with primary antibodies [p-EGFR (Tyr1068) (Rabbit; Cat. No. 3777S), pAKT (Ser 473) (Rabbit; Cat. No. 9271L) and pERK1/2 (Thr202/Tyr204) (Rabbit; Cat. No. 9101L) (1:25-1:800 dilution) or only 1% BSA (for negative control); Cell Signaling, USA], diluted in 1% blocking solution. Twenty-four hours later, the sections were washed and incubated with secondary antibody conjugated to Alexa Fluor 555 (Goat anti rabbit SFX kit; Life Technologies, USA, 1:400 dilution) for 2 hours at room temperature in the dark. Following several washes in PBS, the sections were stained with 4′,6-diamidino-2-phenylindole and mounted. Images were then captured on a ZEISS LSM 700 confocal microscope, and fluorescence intensity was estimated in defined fields using an Image J software package. […]
All numerical values were expressed as means±SEM. […] For the histopathological assessment, a semi-quantitative 5-level lung pathology score was used to grade the degree of inflammation in each microscopic field at 20×. All data were initially assessed for normality. […]

[2] = test system: HDM-challenged BALB/c mice; assay: HDM-induced total and differential cell influx in BAL fluid; type: in vivo; settings: synergy study, OBE 30 mg/kg i.p., dexamethasone 0.5 mg/kg i.p., alone or combined, mean±SEM
Method: (§1) Male BALB/c mice (6-8 weeks old, average weight 25 g) were used in this study. All studies involving animals were in accordance with the ARRIVE guidelines for reporting experiments involving animals. All experimental protocols were approved by the Animal Welfare and Use of Laboratory Animals Committee in the Health Sciences Center, Kuwait University and were carried out in accordance with the EU Directive 2010/63/EU for animal experiments and the National Institutes of Health guide for the care and use of Laboratory animals (NIH Publications No. 8023, revised 1978). Animals were maintained under temperature-controlled conditions with an artificial 12-hour light/dark cycle and were allowed standard chow and water ad libitum.
(§2) Seven treatment groups (A-G, 9-15 animals per group) were established to determine whether OBE, if given prophylactically, inhibits the HDM-induced asthma phenotype. […]
(§3) Twenty-four hours after the last intranasal challenge, half of the animals were sacrificed with an overdose of halothane, bronchoalveolar lavage (BAL) was performed to obtain BAL fluid, and then the lungs were excised in preparation for histology, Western Blot (WB) and immunofluorescence (IF) studies. […] In the other half of the animals, airway responsiveness was measured.

[3] = test system: HDM-challenged BALB/c mice; assay: Lung histology scoring (H&E and PAS) after HDM challenge; type: in vivo; settings: synergy study, OBE 30 mg/kg, dexamethasone 0.5 mg/kg, alone or combined, score 1-5
Method: as §1, §2, §3

Compound: C[C@@H]1C[C@H]2[C@@H]3CCC4=CC(=O)C=C[C@]4(C)[C@@]3(F)[C@@H](O)C[C@]2(C)[C@@]1(O)C(=O)CO [dexamethasone]
- lung resistance (RL) [1]: 5.2±0.8 cm H2O per ml/sec
- HDM-induced phosphorylation of ERK1/2 (pERK1/2 levels) (pERK1/2 (Thr202/Tyr204)): 264.8±4.9%
- eosinophils in BAL fluid ([2]; HDM/vehicle 3.7±0.3): 1.3±0.1 ×10^5
- total cell count in BAL fluid ([2]; HDM/vehicle 6.4±0.5): 4.3±0.2 ×10^5
- mucous intensity score ([3]; HDM 4.2±0.2): 3.0±0.2
- cellular infiltration score ([3]; HDM 4.5±0.2): 3.1±0.3

— patent US12673065B2, “Anti-inflammatory composition and method of treatment” (KUWAIT UNIVERSITY, priority 2020, dated 2026)
